# Legend:
# mouse model of ALS = settings: Kieran et al., Nature Medicine 2004; cited from earlier work
# Hsp90 = experiment: competitive binding assay in vitro using biotinylated geldanamycin (GD-B)
# Description: Many pharmacological inhibitors of Hsp90 such as geldanamycin and 17-AAG target the amino-terminal ATP binding pocket of Hsp90, thereby inhibiting its chaperone function. To test whether HSF1A has affinity for the Hsp90 ATP-binding pocket, we performed competitive binding assays in vitro using a biotinylated geldanamycin (GD-B) molecule. […] Because other small molecule inhibitors of Hsp90, including celastrol, novobiocin, and EGCG, are thought to bind Hsp90 at the carboxy-terminus Amolins, M and Blagg, B, Mini Rev Med Chem. 2009 9, 140-152, we ascertained whether HSF1A could bind to Hsp90 at a region outside of the ATPbinding pocket. To assay for HSF1A binding to Hsp90, we generated an HSF1A-biotin conjugate (HSF1A-B)) and assayed the ability of HSF1A-B to interact with Hsp90.
compound,measurement,setting,value
[O-][n+]1cccc(/C(Cl)=N/OC[C@H](O)CN2CCCCC2)c1 [arimoclomal],disease progression,mouse model of ALS,significantly delays disease progression
CCc1ccc(S(=O)(=O)Nc2cc(-c3cccs3)nn2-c2ccccc2)cc1 [HSF1A],competition with GD-B for Hsp90 binding,Hsp90; concentrations 100-fold higher than GD-B,unable to compete
C=CCNC1=C2C[C@@H](C)C[C@H](OC)[C@H](O)[C@@H](C)/C=C(\C)[C@H](OC(N)=O)[C@@H](OC)/C=C\C=C(/C)C(=O)NC(=CC1=O)C2=O [17-AAG],competition with GD-B for Hsp90 binding,Hsp90; at 1 mM and 10 mM,able to compete

# Reference: patent US9717709B2, “Substituted pyrazoles as heat shock transcription factor activators” (Duke University, priority 2010, dated 2017)
